Key:
Format in all cases: in vivo
Details in all cases: treatment dosage 320 g/ha
[1] = system: Indian mallow; test: Test Example 3: weedkilling efficacy through soil treatment; K: Indian mallow
In short: (§1)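 Crop and weed responses were judged three weeks after a uniform surface spray of the water-diluted emulsion at the given g/ha rate. Seeds sat beneath about 1.5 cm of sterilized diluvial soil, and boxes stood in a greenhouse at 25 to 30° C.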

[2] = system: catchweed; test: Test Example 4: weedkilling efficacy by foliar treatment; O: catchweed
In short: (§2)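 Seeds are spot-sown into sterilized diluvial soil and covered with about 1.5 cm of soil. After 14 days' greenhouse growth at 25 to 30° C, plants are sprayed on stems and leaves with diluted emulsion at the stated g/ha rate, then scored at 3 weeks.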

[3] = system: Indian mallow; test: Test Example 4: weedkilling efficacy by foliar treatment; K: Indian mallow
In short: as §2

[4] = system: barnyard grass; test: Test Example 1: weedkilling efficacy, preemergent weed treatment in the submerged state; A: barnyard grass
In short: (§3)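 Pots of alluvial soil were flooded to a 4 cm depth. Mixed weed seeds were sown and 2.5 leaf-stage rice seedlings transplanted. On sowing day, water-diluted emulsion was applied to the water surface (dose in g/ha). After 3 weeks at 25–30 °C, effects were rated.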

[5] = system: wheat; test: Test Example 3: soil treatment, effect on crop; e: wheat
In short: as §1

[6] = system: wheat; test: Test Example 4: foliar treatment, effect on crop; e: wheat
In short: as §2

[7] = system: wild oat; test: Test Example 3: weedkilling efficacy through soil treatment; G: wild oat
In short: as §1

[8] = system: soybean; test: Test Example 4: foliar treatment, effect on crop; d: soybean
In short: as §2

[9] = system: black-grass; test: Test Example 4: weedkilling efficacy by foliar treatment; H: black-grass
In short: as §2

[10] = system: barnyard grass; test: Test Example 2: weedkilling efficacy, growth period weed treatment in the submerged state; A: barnyard grass
In short: (§4)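 Weeds treated at the 1-2 leaf stage by application of diluted emulsion onto floodwater (4 cm depth, alluvial soil) at specified g/ha. Grown in greenhouse at 25 to 30° C; herbicidal effect rated three weeks after treatment.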

[11] = system: chickweed; test: Test Example 4: weedkilling efficacy by foliar treatment; N: chickweed
In short: as §2

[12] = system: wild oat; test: Test Example 4: weedkilling efficacy by foliar treatment; G: wild oat
In short: as §2

[13] = system: common wind-grass; test: Test Example 3: weedkilling efficacy through soil treatment; J: common wind-grass
In short: as §1

[14] = system: beet; test: Test Example 3: soil treatment, effect on crop; f: beet
In short: as §1

[15] = system: Italian ryegrass; test: Test Example 4: weedkilling efficacy by foliar treatment; I: Italian ryegrass
In short: as §2

[16] = system: catchweed; test: Test Example 3: weedkilling efficacy through soil treatment; O: catchweed
In short: as §1

[17] = system: redroot pigweed; test: Test Example 4: weedkilling efficacy by foliar treatment; L: redroot pigweed
In short: as §2

[18] = system: oval-leafed pondweed; test: Test Example 2: weedkilling efficacy, growth period weed treatment in the submerged state; C: oval-leafed pondweed
In short: as §4

[19] = system: birds-eye speedwell; test: Test Example 4: weedkilling efficacy by foliar treatment; p: birds-eye speedwell
In short: as §2

[20] = system: common wind-grass; test: Test Example 4: weedkilling efficacy by foliar treatment; J: common wind-grass
Procedure: Testing of Weedkilling Efficacy by Foliar Treatment
Sterilized diluvial soil was introduced into 21 cm long, 13 cm wide, 7 cm deep plastic boxes, and seeds of crabgrass, green foxtail, barnyard grass, wild oat, black-grass, Italian ryegrass, common wind-grass, Indian mallow, redroot pigweed, fig-leafed goosefoot, chickweed, catchweed, birds-eye speedwell, corn, soybean, rice, wheat, beet and rapeseed were each spot-sown, and covered with about 1.5 cm of soil, then the plants were grown in a greenhouse at 25 to 30° C.
After they had grown for 14 days, emulsions of compounds of the present invention prepared according to compounding example 2 were diluted with water to give the specified dosages, and applied uniformly onto the stem and leaf parts with a small sprayer. 3 weeks after the pesticide treatment the effect on each type of plant was investigated on the basis of the assessment criteria of test example 1.
A: barnyard grass, B: bulrush, C: oval-leafed pondweed, D: crabgrass, E: green foxtail, F: barnyard grass, G: wild oat, H: black-grass, I: Italian ryegrass, J: common wind-grass, K: Indian mallow, L: redroot pigweed, M: fig-leafed goosefoot, N: chickweed, O: catchweed, p: birds-eye speedwell, a: transplanted rice, b: directly sown rice, c: corn, d: soybean, e: wheat, f: beet, g: rapeseed
Further, pesticide dosage (g/ha) indicates the concentration regulated such that treatment was with only the stated number of grams (g), when calculated per hectare (ha).

[21] = system: oval-leafed pondweed; test: Test Example 1: weedkilling efficacy, preemergent weed treatment in the submerged state; C: oval-leafed pondweed
In short: as §3

[22] = system: soybean; test: Test Example 3: soil treatment, effect on crop; d: soybean
In short: as §1

[23] = system: redroot pigweed; test: Test Example 3: weedkilling efficacy through soil treatment; L: redroot pigweed
In short: as §1

[24] = system: Italian ryegrass; test: Test Example 3: weedkilling efficacy through soil treatment; I: Italian ryegrass
In short: as §1

[25] = system: beet; test: Test Example 4: foliar treatment, effect on crop; f: beet
In short: as §2

[26] = system: chickweed; test: Test Example 3: weedkilling efficacy through soil treatment; N: chickweed
In short: as §1

[27] = system: bulrush; test: Test Example 1: weedkilling efficacy, preemergent weed treatment in the submerged state; B: bulrush
In short: as §3

[28] = system: black-grass; test: Test Example 3: weedkilling efficacy through soil treatment; H: black-grass
In short: as §1

[29] = system: fig-leafed goosefoot; test: Test Example 3: weedkilling efficacy through soil treatment; M: fig-leafed goosefoot
In short: as §1

[30] = system: corn; test: Test Example 4: foliar treatment, effect on crop; c: corn
In short: as §2

[31] = system: fig-leafed goosefoot; test: Test Example 4: weedkilling efficacy by foliar treatment; M: fig-leafed goosefoot
In short: as §2

[32] = system: corn; test: Test Example 3: soil treatment, effect on crop; c: corn
In short: as §1

[33] = system: transplanted rice; test: Test Example 1: preemergent weed treatment in the submerged state, effect on crop; a: transplanted rice
In short: as §3

[34] = system: bulrush; test: Test Example 2: weedkilling efficacy, growth period weed treatment in the submerged state; B: bulrush
In short: as §4

COC(=O)c1ccnc(NC(=O)C(C)(C)N2COC(C)=C(c3ccccc3)C2=O)c1 [B-2-61]
K (Indian mallow) weedkilling efficacy grade [1]: 0 (weed kill ratio 5% or less (practically no effect))
O (catchweed) weedkilling efficacy grade [2]: 0 (weed kill ratio 5% or less (practically no effect))
K (Indian mallow) weedkilling efficacy grade [3]: 0 (weed kill ratio 5% or less (practically no effect))
A (barnyard grass) weedkilling efficacy grade [4]: 0 (weed kill ratio 5% or less (practically no effect))
e (wheat) effect on crop grade [5]: 0 (weed kill ratio 5% or less (practically no effect))
e (wheat) effect on crop grade [6]: 0 (weed kill ratio 5% or less (practically no effect))
G (wild oat) weedkilling efficacy grade [7]: 0 (weed kill ratio 5% or less (practically no effect))
d (soybean) effect on crop grade [8]: 0 (weed kill ratio 5% or less (practically no effect))
H (black-grass) weedkilling efficacy grade [9]: 0 (weed kill ratio 5% or less (practically no effect))
A (barnyard grass) weedkilling efficacy grade [10]: 0 (weed kill ratio 5% or less (practically no effect))
N (chickweed) weedkilling efficacy grade [11]: 0 (weed kill ratio 5% or less (practically no effect))
G (wild oat) weedkilling efficacy grade [12]: 0 (weed kill ratio 5% or less (practically no effect))
J (common wind-grass) weedkilling efficacy grade [13]: 5 (weed kill ratio 90% or more, (practically complete withering))
f (beet) effect on crop grade [14]: 0 (weed kill ratio 5% or less (practically no effect))
I (Italian ryegrass) weedkilling efficacy grade [15]: 0 (weed kill ratio 5% or less (practically no effect))
O (catchweed) weedkilling efficacy grade [16]: 0 (weed kill ratio 5% or less (practically no effect))
L (redroot pigweed) weedkilling efficacy grade [17]: 0 (weed kill ratio 5% or less (practically no effect))
C (oval-leafed pondweed) weedkilling efficacy grade [18]: 2 (weed kill ratio 20% or more, less than 40%)
P (birds-eye speedwell) weedkilling efficacy grade [19]: 2 (weed kill ratio 20% or more, less than 40%)
J (common wind-grass) weedkilling efficacy grade [20]: 1 (weed kill ratio 5% or more, less than 20%)
C (oval-leafed pondweed) weedkilling efficacy grade [21]: 4 (weed kill ratio 70% or more, less than 90%)
d (soybean) effect on crop grade [22]: 0 (weed kill ratio 5% or less (practically no effect))
L (redroot pigweed) weedkilling efficacy grade [23]: 0 (weed kill ratio 5% or less (practically no effect))
I (Italian ryegrass) weedkilling efficacy grade [24]: 2 (weed kill ratio 20% or more, less than 40%)
f (beet) effect on crop grade [25]: 2 (weed kill ratio 20% or more, less than 40%)
N (chickweed) weedkilling efficacy grade [26]: 0 (weed kill ratio 5% or less (practically no effect))
B (bulrush) weedkilling efficacy grade [27]: 0 (weed kill ratio 5% or less (practically no effect))
H (black-grass) weedkilling efficacy grade [28]: 4 (weed kill ratio 70% or more, less than 90%)
M (fig-leafed goosefoot) weedkilling efficacy grade [29]: 0 (weed kill ratio 5% or less (practically no effect))
c (corn) effect on crop grade [30]: 0 (weed kill ratio 5% or less (practically no effect))
M (fig-leafed goosefoot) weedkilling efficacy grade [31]: 0 (weed kill ratio 5% or less (practically no effect))
c (corn) effect on crop grade [32]: 0 (weed kill ratio 5% or less (practically no effect))
a (transplanted rice) effect on crop grade [33]: 0 (weed kill ratio 5% or less (practically no effect))
B (bulrush) weedkilling efficacy grade [34]: 2 (weed kill ratio 20% or more, less than 40%)

Reference: patent US9738634B2, “Heterocyclic amide compound and herbicide” (SYNGENTA PARTICIPATIONS AG, priority 2013, dated 2017)
